Biological target: T1, angiotensin II receptor (Oryctolagus cuniculus, UniProt P34976)
T1 construct: The aorta was cut into 3~4 mm to form ring samples; from tissue; host or cells: isolated aorta rings of New Zealand White rabbits
T1 sequence (P34976 1-359): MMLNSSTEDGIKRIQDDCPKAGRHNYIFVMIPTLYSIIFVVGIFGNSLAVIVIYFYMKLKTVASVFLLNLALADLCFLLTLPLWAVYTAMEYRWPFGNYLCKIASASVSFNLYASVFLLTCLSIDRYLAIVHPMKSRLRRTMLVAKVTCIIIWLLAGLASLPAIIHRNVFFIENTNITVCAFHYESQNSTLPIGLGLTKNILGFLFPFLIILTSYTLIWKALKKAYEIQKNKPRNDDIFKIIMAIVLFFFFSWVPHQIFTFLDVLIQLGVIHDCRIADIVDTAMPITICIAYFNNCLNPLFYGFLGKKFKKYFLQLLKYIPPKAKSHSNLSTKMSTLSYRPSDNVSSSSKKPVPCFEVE
Assay: inhibition of angiotensin II induced contraction of isolated rabbit aorta rings
Format: cell-based, New Zealand White rabbit
Conditions: test compound incubated 20 minutes, 37° C., pH 7.4, read-out: IC50 (concentration being required to inhibit angiotensin II induced contraction by 50%)
Description: The antagonistic activity of the representative compounds of the invention was evaluated using the methodology describe below.
From New Zealand White rabbits (male or female, 2~2.5 kg), aorta was isolated, and fat and connected tissue were removed therefrom. The aorta was cut into 3~4 mm to form ring samples. The aorta sample was suspended in 20 ml of organ bath (37° C.) containing modified Krebs-Henseleit solution saturated with 95% O2 /5% CO2 (pH 7.4).
The aorta preparation was exposed consecutively to 2 g of tensile strength for 90 minutes intermittently washing the sample with 30 minutes interval and then to 30 mM of KCl to observe contraction response. After washing more than three times, the aorta preparation was again allowed to contract three times for stabilization by adding Angiotensin II ([…]) thereto with 30 minutes interval. The third contraction response to Angiotensin II was considered as control.
10 minutes after the third contraction, the test compound was administered to the aorta preparation, which was incubated for 20 minutes.
Comparing angiotensin II contraction curve obtained from the above inhibition test with that of the control, IC50 (concentration being required to inhibit angiotensin II induced contraction by 50%) was determined for each test compound(Table 1).

CCCCc1nc(C)c(CC(=O)N2CCN(C)CC2)c(=O)n1Cc1ccc(-c2ccccc2-c2nn[nH]n2)cc1 [Compound 76, 2-n-butyl-5-(4'-methylpiperazinocarbonylmethyl)-6-methyl-3-[[2'-(1H-tetrazol-5-yl)biphenyl-4-yl]methyl]-pyrimidin-4-(3H)-one]
IC50: 3.59 nM

CCCCc1nc(C)c(CCC(=O)OCC)c(=O)n1Cc1ccc(-c2ccccc2-c2nnn[nH]2)cc1 [Compound 23, 2-n-butyl-5-(2'-ethoxycarbonylethyl) -6-methyl-3-[[2'-(1H-tetrazol-5-yl)biphenyl-4-yl]methyl]-pyrimidin-4-(3H)-one]
IC50: 3.5 nM

CCCCc1nc(C)c(CCC(=O)N2CCCCCC2)c(=O)n1Cc1ccc(-c2ccccc2-c2nn[nH]n2)cc1 [Compound 70, 2-n-butyl-5-(2'-hexamethyleneiminocarbonylethyl)-6-methyl-3-[[2'-(1H-tetrazol-5-yl)biphenyl-4-yl]methyl]-pyrimidin-4-(3H)-one]
IC50: 11.6 nM

CCCCc1nc(C)c(CC(=O)N2CCCCC2)c(=O)n1Cc1ccc(-c2ccccc2-c2nn[nH]n2)cc1 [Compound 45, 2-n-butyl-5-piperidinocarbonylmethyl-6-methyl-3-[[2'-(1H-tetrazol-5-yl)biphenyl-4-yl]methyl]-pyrimidin-4-(3H)-one]
IC50: 2.46 nM

CCCCc1nc(C)c(CC(=O)N2CCC[C@H]2C(=O)OC)c(=O)n1Cc1ccc(-c2ccccc2-c2nn[nH]n2)cc1 [Compound 42, 2-n-butyl-5-[(S)-2'-methoxycarbonylpyrrolidinocarbonylmethyl]-6-methyl-3-[[2'-(1H-tetrazol-5-yl)biphenyl-4-yl]methyl]-pyrimidin-4-(3H)-one]
IC50: 2.06 nM

CCc1nc(=O)c(CCC(=O)O)c(C)n1Cc1ccc(-c2ccccc2-c2nnn[nH]2)cc1 [Compound 7, 2-ethyl-5-(2'-carboxyethyl)-6-methyl-1-[[2'-(1H-tetrazol-5-yl)-biphenyl-4-yl]methyl]-pyrimidin-4-(1H)-one]
IC50: 2.84 nM

CCCCc1nc(C)c(CC(=O)O)c(=O)n1Cc1ccc(-c2ccccc2-c2nnn[nH]2)cc1 [Compound 19, 2-n-butyl-5-carboxymethyl-6-methyl-3-[[2'-(1H-tetrazol-5-yl)-biphenyl-4-yl]methyl]-pyrimidin-4-(3H)-one]
IC50: 2.63 nM

CCCCc1nc(C)c(CC(=O)N2CCCCCC2)c(=O)n1Cc1ccc(-c2ccccc2-c2nn[nH]n2)cc1 [Compound 56, 2-n-butyl-5-hexamethyleneiminocarbonylmethyl-6-methyl-3-[[2'-(1H-tetrazol-5-yl)biphenyl-4-yl]methyl]-pyrimidin-4-(3H)-one]
IC50: 3.33 nM

CCCCc1nc(C)c(CC(=O)N(C)C)c(=O)n1Cc1ccc(-c2ccccc2-c2nnn[nH]2)cc1 [Compound 22, 2-n-butyl-5-dimethylaminocarbonylmethyl-6-methyl-3-[[2'-(1H-tetrazol-5-yl)biphenyl-4-yl]methyl]-pyrimidin-4-(3H)-one]
IC50: 2.37 nM

CCCc1nc(C)c(CC(=O)N(CC)CC)c(=O)n1Cc1ccc(-c2ccccc2-c2nnn[nH]2)cc1 [Compound 12, 2-n-propyl-5-diethylaminocarbonylmethyl-6-methyl-3-[[2'-(1H-tetrazol-5-yl)biphenyl-4-yl]methyl]-pyrimidin-4-(3H)-one]
IC50: 5.59 nM

CCCCc1nc(C)c(CCC(=O)N2CC=CC2)c(=O)n1Cc1ccc(-c2ccccc2-c2nn[nH]n2)cc1 [Compound 61, 2-n-butyl-5-[2'-(3"-pyrrolino)carbonylethyl]-6-methyl-3-[[2'-(1H-tetrazol-5-yl)biphenyl-4-yl]methyl]-pyrimidin-4-(3H)-one]
IC50: 7.85 nM

CCCCc1nc(C)c(CCC(=O)N2C(C)COCC2C)c(=O)n1Cc1ccc(-c2ccccc2-c2nn[nH]n2)cc1 (stereo not drawn) [Compound 79, 2-n-butyl-5-[2'-(3",5"-dimethylmorpholino)carbonylethyl]-6-methyl-3-[[2'-(1H-tetrazol-5-yl)biphenyl-4-yl]methyl]-pyrimidin-4-(3H)-one]
IC50: 13.1 nM

CCc1nc(C)c(CCC(=O)O)c(=O)n1Cc1ccc(-c2ccccc2-c2nnn[nH]2)cc1 [Compound 6, 2-ethyl-5-(2'-carboxyethyl)-6-methyl-3-[[2'-(1H-tetrazol-5-yl)-biphenyl-4-yl]methyl]-pyrimidin-4-(3H)-one]
IC50: 22.7 nM

CCCCc1nc(=O)c(CCC(=O)O)c(C)n1Cc1ccc(-c2ccccc2-c2nnn[nH]2)cc1 [Compound 26, 2-n-butyl-5-(2'-carboxyethyl)-6-methyl-1-[[2'-(1H-tetrazol-5-yl)-biphenyl-4-yl]methyl]-pyrimidin-4-(1H)-one]
IC50: 42.8 nM

CCCCc1nc(=O)c(CC(=O)N2CCCCC2)c(C)n1Cc1ccc(-c2ccccc2-c2nn[nH]n2)cc1 [Compound 46, 2-n-butyl-5-piperidinocarbonylmethyl-6-methyl-1-[[2'-(1H-tetrazol-5-yl)biphenyl-4-yl]methyl]-pyrimidin-4-(1H)-one]
IC50: 405 nM

CCOC(=O)CCc1c(C)nc(CC)n(Cc2ccc(-c3ccccc3-c3nnn[nH]3)cc2)c1=O [Compound 5, 2-ethyl-5-(2'-ethoxycarbonylethyl)-6-methyl-3-[[2'-(1H-tetrazol-5-yl)biphenyl-4-yl]methyl]-pyrimidin-4-(3H)-one]
IC50: 30.7 nM

CCCCc1nc(C)c(CCC(=O)N2CCCC2)c(=O)n1Cc1ccc(-c2ccccc2-c2nn[nH]n2)cc1 [Compound 58, 2-n-butyl-5-(2'-pyrrolidinocarbonylethyl)-6-methyl-3-[[2'-(1H-tetrazol-5-yl)biphenyl-4-yl]methyl]-pyrimidin-4-(3H)-one]
IC50: 5.86 nM

CCCCc1nc(C)c(CCC(=O)NCc2ccccc2)c(=O)n1Cc1ccc(-c2ccccc2-c2nnn[nH]2)cc1 [Compound 28, 2-n-butyl-5-(2'-benzylaminocarbonylethyl)-6-methyl-3-[[2'-(1H-tetrazol-5-yl)biphenyl-4-yl]methyl]-pyrimidin-4-(3H)-one]
IC50: 92.3 nM

CCCCc1nc(CC)c(CCC(=O)OCC)c(=O)n1Cc1ccc(-c2ccccc2-c2nn[nH]n2)cc1 [Compound 33, 2-n-butyl-5-(2'-ethoxycarbonylethyl)-6-ethyl-3-[[2'-(1H-tetrazol-5-yl)biphenyl-4-yl]methyl]-pyrimidin-4-(3H)-one]
IC50: 11.2 nM

CCCCc1nc(C)c(CC(=O)N2CCCC(C(=O)OCC)C2)c(=O)n1Cc1ccc(-c2ccccc2-c2nn[nH]n2)cc1 (stereo not drawn) [Compound 52, 2-n-butyl-5-(3'-ethoxycarbonylpiperidinocarbonylmethyl)-6-methyl-3-[[2'-(1H-tetrazol-5-yl)biphenyl-4-yl]methyl]-pyrimidin-4-(3H)-one]
IC50: 3.56 nM

CCCCc1nc(C)c(CC(=O)N2CCCC(C)(C)C2)c(=O)n1Cc1ccc(-c2ccccc2-c2nn[nH]n2)cc1 [Compound 49, 2-n-butyl-5-(3',3'-dimethylpiperidinocarbonylmethyl)-6-methyl-3-[[2'-(1H-tetrazol-5-yl)biphenyl-4-yl]methyl]-pyrimidin-4-(3H)-one]
IC50: 8.96 nM

CCCCc1nc(=O)c(CC(=O)OCC)c(C)n1Cc1ccc(-c2ccccc2-c2nnn[nH]2)cc1 [Compound 18, 2-n-butyl-5-ethoxycarbonylmethyl-6-methyl-1-[[2'-(1H-tetrazol-5-yl)biphenyl-4-yl]methyl]-pyrimidin-4-(1H)-one]
IC50: 93.3 nM

CCCCc1nc(C)c(CCCC(=O)OCC)c(=O)n1Cc1ccc(-c2ccccc2-c2nnn[nH]2)cc1 [Compound 29, 2-n-butyl-5-(3'-ethoxycarbonylpropyl)-6-methyl-3-[[2'-(1H-tetrazol-5-yl)biphenyl-4-yl]methyl]-pyrimidin-4-(3H)-one]
IC50: 17 nM

CCCCc1nc(C)c(CC(=O)N2CCOCC2)c(=O)n1Cc1ccc(-c2ccccc2-c2nn[nH]n2)cc1 [Compound 73, 2-n-butyl-5-morpholinocarbonylmethyl-6-methyl-3-[[2'-(1H-tetrazol-5-yl)biphenyl-4-yl]methyl]-pyrimidin-4-(3H)-one]
IC50: 1.75 nM

CCCCc1nc(=O)c(CCC(=O)OCC)c(C)n1Cc1ccc(-c2ccccc2-c2nnn[nH]2)cc1 [Compound 24, 2-n-butyl-5-(2'-ethoxycarbonylethyl)-6-methyl-1-[[2'-(1H-tetrazol-5-yl)biphenyl-4-yl]methyl]-pyrimidin-4-(1H)-one]
IC50: 169 nM

CCCCc1nc(C)c(CC(=O)N2CCC(C(=O)OCC)CC2)c(=O)n1Cc1ccc(-c2ccccc2-c2nn[nH]n2)cc1 [Compound 51, 2-n-butyl-5-(4'-ethoxycarbonylpiperidinocarbonylmethyl)-6-methyl-3-[[2'-(1H-tetrazol-5-yl)biphenyl-4-yl]methyl]-pyrimidin-4-(3H)-one]
IC50: 5.99 nM

CCCCc1nc(C)c(CCC(=O)N2CCCCC2)c(=O)n1Cc1ccc(-c2ccccc2-c2nn[nH]n2)cc1 [Compound 62, 2-n-butyl-5-[2'-piperidinocarbonylethyl]-6-methyl-3-[[2'-(1H-tetrazol-5-yl)biphenyl-4-yl]methyl]-pyrimidin-4-(3H)-one]
IC50: 9.62 nM

Source: patent US5869476A, “Pyrimidinone derivatives” (Boryung Pharmaceutical Co., Ltd., priority 1994, dated 1999)
